Results from ChEMBL document CHEMBL1201862, “PubChem BioAssay data set” (2004).
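Test compounds were applied to cells in 96-well plates for 48 hours at 5 doses. GI50: concentration for 50% inhibition of growth.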 Calls of active or inactive are those of the source. Cut-off read from the data, not from the text of the source: active = GI50 up to about 1.1 µM and inactive = higher.

What was measured:
Test in all cases: DTP human tumour cell line panel, 48 h
A549 = tested on: A549
EKVX = tested on: EKVX
HCT-116 = tested on: HCT-116
HOP-62 = tested on: HOP-62
IGROV-1 = tested on: IGROV-1
KM12 = tested on: KM12
LOX IMVI = tested on: LOX IMVI
OVCAR-3 = tested on: OVCAR-3
OVCAR-8 = tested on: OVCAR-8
RPMI-8226 = tested on: RPMI-8226
SF-295 = tested on: SF-295
SK-MEL-5 = tested on: SK-MEL-5
SNB-19 = tested on: SNB-19
UO-31 = tested on: UO-31
NCI-H226 = tested on: NCI-H226
NCI-H460 = tested on: NCI-H460
SNB-75 = tested on: SNB-75
HCC 2998 = tested on: HCC 2998

Q: For `CC(CN(C)C)C(=O)c1ccccc1C(=O)O` (stereo not drawn), which GI50 (A549) is on record?
A: The GI50 was 41.1 µM (inactive).

Q: What about the GI50 (EKVX) of the same compound?
A: Its GI50 is 51.1 µM (inactive).

Q: What about the GI50 (HCT-116) of the same compound?
A: Its GI50 is 32.1 µM (inactive).

Q: And the GI50 (HOP-62)?
A: Its GI50 is 20.6 µM (inactive).

Q: What about the GI50 (IGROV-1) of the same compound?
A: The GI50 was 44 µM (inactive).

Q: And the GI50 (KM12)?
A: Its GI50 is 30.5 µM (inactive).

Q: And the GI50 (LOX IMVI)?
A: Its GI50 is 33.4 µM (inactive).

Q: And the GI50 (OVCAR-3)?
A: Its GI50 is 14.7 µM (inactive).

Q: And the GI50 (OVCAR-8)?
A: Its GI50 is 30.3 µM (inactive).

Q: What about the GI50 (RPMI-8226) of the same compound?
A: The GI50 was 18.5 µM (inactive).

Q: What about the GI50 (SF-295) of the same compound?
A: The GI50 was 41.9 µM (inactive).

Q: What about the GI50 (SK-MEL-5) of the same compound?
A: Its GI50 is 28.5 µM (inactive).

Q: What about the GI50 (SNB-19) of the same compound?
A: Its GI50 is 39.2 µM (inactive).

Q: And the GI50 (UO-31)?
A: The GI50 was 47.2 µM (inactive).

Q: What does the source list for `COC(=O)C(CSSC[C@H](N/C(C)=C/C(C)=O)C(=O)OC)N/C(C)=C/C(C)=O` (stereo partly drawn)?
A: GI50 (A549): 99.8 µM (inactive); GI50 (EKVX): 16.4 µM (inactive); GI50 (HCT-116): 27 µM (inactive); GI50 (HOP-62): 57.9 µM (inactive); GI50 (IGROV-1): 36.7 µM (inactive); GI50 (KM12): 28.8 µM (inactive); GI50 (LOX IMVI): 14 µM (inactive); GI50 (NCI-H226): > 100 µM (inactive); GI50 (NCI-H460): > 100 µM (inactive); GI50 (OVCAR-3): 4.17 µM (inactive); GI50 (OVCAR-8): < 0.01 µM (active); GI50 (RPMI-8226): 21.3 µM (inactive); GI50 (SF-295): 35.2 µM (inactive); GI50 (SK-MEL-5): 67.3 µM (inactive); GI50 (SNB-19): > 100 µM (inactive); GI50 (SNB-75): 71.4 µM (inactive); GI50 (UO-31): 47.5 µM (inactive)

Q: Which GI50 (A549) does the source give for `CC1CCCC2=C1C(c1ccc(Cl)cc1)n1c(s/c(=C\c3ccc(Cl)cc3)c1=O)=N2` (stereo not drawn) here?
A: Its GI50 is > 100 µM (inactive).

Q: What about the GI50 (EKVX) of the same compound?
A: The GI50 was > 100 µM (inactive).

Q: And the GI50 (HCT-116)?
A: The GI50 was > 100 µM (inactive).

Q: What about the GI50 (HOP-62) of the same compound?
A: The GI50 was > 100 µM (inactive).

Q: And the GI50 (IGROV-1)?
A: The GI50 was > 100 µM (inactive).

Q: What about the GI50 (KM12) of the same compound?
A: The GI50 was > 100 µM (inactive).

Q: What about the GI50 (LOX IMVI) of the same compound?
A: Its GI50 is > 100 µM (inactive).

Q: What about the GI50 (OVCAR-8) of the same compound?
A: The GI50 was > 100 µM (inactive).

Q: What about the GI50 (RPMI-8226) of the same compound?
A: Its GI50 is > 100 µM (inactive).

Q: What about the GI50 (SK-MEL-5) of the same compound?
A: Its GI50 is > 100 µM (inactive).

Q: What about the GI50 (SNB-19) of the same compound?
A: Its GI50 is > 100 µM (inactive).

Q: What about the GI50 (SNB-75) of the same compound?
A: Its GI50 is > 100 µM (inactive).

Q: What about the GI50 (UO-31) of the same compound?
A: The GI50 was > 100 µM (inactive).

Q: How did the GI50 (A549) turn out when `COC1=CC(c2ccc(Br)[nH]2)=N/C1=C/NCC(C)C` was run?
A: The GI50 was 1.46 µM (inactive).

Q: And the GI50 (EKVX)?
A: Its GI50 is 0.368 µM (active).

Q: And the GI50 (HCC 2998)?
A: Its GI50 is 1.34 µM (inactive).

Q: And the GI50 (HCT-116)?
A: The GI50 was 1.44 µM (inactive).

Q: And the GI50 (HOP-62)?
A: The GI50 was 1.47 µM (inactive).

Q: And the GI50 (IGROV-1)?
A: The GI50 was 2.37 µM (inactive).

Q: What about the GI50 (KM12) of the same compound?
A: Its GI50 is 1.26 µM (inactive).

Q: What about the GI50 (NCI-H460) of the same compound?
A: Its GI50 is 1.62 µM (inactive).

Q: And the GI50 (OVCAR-3)?
A: The GI50 was 1.62 µM (inactive).

Q: And the GI50 (OVCAR-8)?
A: Its GI50 is 2.01 µM (inactive).

Q: What about the GI50 (RPMI-8226) of the same compound?
A: Its GI50 is 0.412 µM (active).

Q: What about the GI50 (SF-295) of the same compound?
A: The GI50 was 1.6 µM (inactive).

Q: What about the GI50 (SK-MEL-5) of the same compound?
A: Its GI50 is 1.53 µM (inactive).

Q: What about the GI50 (SNB-19) of the same compound?
A: Its GI50 is 3.6 µM (inactive).

Q: And the GI50 (SNB-75)?
A: The GI50 was 5.18 µM (inactive).

Q: And the GI50 (UO-31)?
A: The GI50 was 2.06 µM (inactive).

Q: What does the source list for `N/C(=N\NC(=O)c1nc2ccccc2s1)c1ccccn1`?
A: GI50 (A549): 3.19 µM (inactive); GI50 (EKVX): 3.68 µM (inactive); GI50 (HCC 2998): 8.17 µM (inactive); GI50 (HCT-116): 3.28 µM (inactive); GI50 (HOP-62): 10.3 µM (inactive); GI50 (IGROV-1): 12.8 µM (inactive); GI50 (KM12): 8.79 µM (inactive); GI50 (LOX IMVI): 4.93 µM (inactive); GI50 (NCI-H460): 2.85 µM (inactive); GI50 (OVCAR-3): 3.92 µM (inactive); GI50 (OVCAR-8): 5.33 µM (inactive); GI50 (RPMI-8226): 2.46 µM (inactive); GI50 (SF-295): 3.83 µM (inactive); GI50 (SK-MEL-5): 4.24 µM (inactive); GI50 (SNB-19): 16 µM (inactive); GI50 (SNB-75): 7.74 µM (inactive); GI50 (UO-31): 2.26 µM (inactive)

Q: How did the GI50 (A549) turn out when `CC(C)(C)OC(=O)C1/C(=C/CBr)CN1C(=O)OC(C)(C)C` (stereo not drawn) was run?
A: The GI50 was 18.9 µM (inactive).

Q: And the GI50 (EKVX)?
A: Its GI50 is 18 µM (inactive).

Q: And the GI50 (HCC 2998)?
A: Its GI50 is 16.9 µM (inactive).

Q: What about the GI50 (HCT-116) of the same compound?
A: Its GI50 is 11.4 µM (inactive).

Q: What about the GI50 (HOP-62) of the same compound?
A: Its GI50 is 15.8 µM (inactive).

Q: What about the GI50 (IGROV-1) of the same compound?
A: The GI50 was 5.5 µM (inactive).

Q: What about the GI50 (LOX IMVI) of the same compound?
A: The GI50 was 3.24 µM (inactive).

Q: And the GI50 (NCI-H460)?
A: The GI50 was 16.7 µM (inactive).

Q: What about the GI50 (OVCAR-3) of the same compound?
A: Its GI50 is 14.7 µM (inactive).

Q: What about the GI50 (OVCAR-8) of the same compound?
A: The GI50 was 16.9 µM (inactive).

Q: What about the GI50 (RPMI-8226) of the same compound?
A: Its GI50 is 3.98 µM (inactive).

Q: What about the GI50 (SF-295) of the same compound?
A: Its GI50 is 15.9 µM (inactive).

Q: And the GI50 (SK-MEL-5)?
A: Its GI50 is 14.3 µM (inactive).

Q: What about the GI50 (SNB-19) of the same compound?
A: Its GI50 is 17.6 µM (inactive).

Q: And the GI50 (UO-31)?
A: Its GI50 is 18.8 µM (inactive).

Q: What does the source list for `N#Cc1nc(C#N)c(NC(=O)c2ccccc2C(=O)O)[nH]1`?
A: GI50 (A549): > 100 µM (inactive); GI50 (EKVX): > 100 µM (inactive); GI50 (HCT-116): > 100 µM (inactive); GI50 (HOP-62): > 100 µM (inactive); GI50 (IGROV-1): > 100 µM (inactive); GI50 (KM12): > 100 µM (inactive); GI50 (LOX IMVI): > 100 µM (inactive); GI50 (NCI-H226): > 100 µM (inactive); GI50 (OVCAR-3): > 100 µM (inactive); GI50 (OVCAR-8): > 100 µM (inactive); GI50 (RPMI-8226): > 100 µM (inactive); GI50 (SF-295): > 100 µM (inactive); GI50 (SK-MEL-5): > 100 µM (inactive); GI50 (SNB-19): > 100 µM (inactive); GI50 (SNB-75): > 100 µM (inactive); GI50 (UO-31): > 100 µM (inactive)
